These results are taken from patent US20240165120A1, “TREATING CANCER IN PATIENT HAVING CO-OCCURRING GENETIC ALTERATION IN FGFR2 AND A CANCER DRIVER GENE” (TAIHO PHARMACEUTICAL CO., LTD., priority 2021, published 2024).

One series has as its system advanced iCCA. Particulars: 1st line; patients with advanced iCCA; cited from earlier work.
Another series in a line: Crystal form stability. Particulars: crystal forms defined by XRPD peaks.
Series [1] in a line: Crystal form oral absorbability. Particulars: crystal forms defined by XRPD peaks.

Regarding Gemcitabine-cisplatin, in the series on advanced iCCA, the overall survival is given as 1 year. On to `C=CC(=O)N1CC[C@H](n2nc(C#Cc3cc(OC)cc(OC)c3)c3c(N)ncnc32)C1` [Compound (1), (S)-1-[(3)-[4-amino-3-[(3,5-dimethoxyphenyl)ethynyl]-1H-pyrazolo[3,4-d]pyrimidin-1-yl]-1-pyrrolidinyl]-2-propen-1-one], for which the stability entry in the series “Crystal form stability” was “good stability”. For the same compound, the oral absorbability result in series [1] is recorded as “excellent oral absorbability”.
